Earlier results, collected in patent US20220287347A1, “PEPTIDES FOR TREATING MUSCLE ATROPHY” (NURITAS LIMITED, priority 2019, published 2022).

Tests used:
[1] = binding to lipoproteins

Compound | half-life in humans | fraction unbound [1]
C[C@@H](O)[C@@H]1NC(=O)[C@H](CCCCN)NC(=O)[C@@H](Cc2c[nH]c3ccccc23)NC(=O)[C@H](Cc2ccccc2)NC(=O)[C@@H](NC(=O)[C@H](N)Cc2ccccc2)CSSC[C@@H](C(=O)N[C@H](CO)[C@@H](C)O)NC1=O [octreotide] | about 100 min | 0.65
NC(=O)CC[C@@H]1NC(=O)[C@H](Cc2ccccc2)NC(=O)[C@H](Cc2ccc(O)cc2)NC(=O)[C@@H](N)CSSC[C@@H](C(=O)N2CCC[C@H]2C(=O)N[C@@H](CCCN=C(N)N)C(=O)NCC(N)=O)NC(=O)[C@H](CC(N)=O)NC1=O [vasopressin] | 10 to 35 min | 
